This note sets out measurements from patent US20030158188A1, “Fused azabicyclic compounds that inhibit vanilloid receptor subtype 1 (VR1) receptor” (priority 2002, published 2003).

Molecules are shown by their SMILES. Where a name gives a salt, the structure may show the parent alone.

Take `O=C(NCc1ccc(Cl)c(C(F)(F)F)c1)Nc1cccc2[nH]ccc12` [Example 83, 1-(4-Chloro-3-trifluoromethyl-benzyl)-3-(1H-indol-4-yl)-urea]: the melting point came out at 197 °C.

For the molecule `O=C(NCc1ccc(C(F)(F)F)c(F)c1)Nc1cccc2[nH]ccc12` [Example 82, N-[3-fluoro-4-(trifluoromethyl)benzyl]-N′-1H-indol-4-ylurea], the melting point was 198 °C.

Take `O=C(NCc1ccc(Br)cc1)Nc1cccc2[nH]ccc12` [Example 78, N-(4-bromobenzyl)-N′-1H-indol-4-ylurea]: the melting point was 198 °C.

As to `Cc1[nH]c2cccc(NC(=O)NCc3ccc(Br)cc3)c2c1C` [Example 88, N-(4-bromobenzyl)-N′-(2,3-dimethyl-1H-indol-4-yl)urea], the melting point turned out to be 190 °C.

As to `O=C(NCCc1ccc(Cl)cc1Cl)Nc1cccc2[nH]ccc12` [Example 85, N-[2-(2,4-dichlorophenyl)ethyl]-N′-1H-indol-4-ylurea], the melting point stood at 170 °C.

Molecule `O=C(NCc1ccc(Cl)c(Cl)c1)Nc1cccc2[nH]ccc12` [Example 79, N-(3,4-dichlorobenzyl)-N′-1H-indol-4-ylurea] registered a melting point of 201 °C.

In turn, `O=C(NCc1ccc(OC(F)(F)F)cc1)Nc1cccc2[nH]ccc12` [Example 81, N-1H-indol-4-yl-N′-[4-(trifluoromethoxy)benzyl]urea] returned a melting point of 177 °C.

`O=C(NCc1ccc(Br)cc1)Nc1cccc2[nH]ncc12` (as salt: hydrochloride) [Example 89, N-(4-bromobenzyl)-N′-1H-indazol-4-ylurea] gave a melting point of 126 °C.

With `O=C(NCc1ccc(C(F)(F)F)cc1)Nc1cccc2[nH]ccc12` [Example 80, N-1H-indol-4-yl-N′-[4-(trifluoromethyl)benzyl]urea], the melting point stood at 178 °C.

In general, melting point refers to the temperature of the solid-liquid transition.
